Reference: US12116573B2, “Targeting ligands for therapeutic compounds” (Arrowhead Pharmaceuticals, Inc., priority 2016, dated 2024)

Assay: Solubility of targeting ligand phosphoramidite compounds in oligonucleotide synthesis solvent (Example 5)
Assay type: physicochemical
Details: for solubility relative to Structure 103d: solvents for oligonucleotide synthesis
Source text: The compositions were solubilized in dichloromethane (DCM) and dried over sieves.

## CC(=O)NC1C(OCCOCCNC(=O)CCC(NC(=O)CCC(NC(=O)CCOCCOCCOCCOCCOCCOCCOCCOCCOP(OCCC#N)N(C(C)C)C(C)C)C(=O)NCCOCCOC2OC(COC(C)=O)C(OC(C)=O)C(OC(C)=O)C2NC(C)=O)C(=O)NCCOCCOC2OC(COC(C)=O)C(OC(C)=O)C(OC(C)=O)C2NC(C)=O)OC(COC(C)=O)C(OC(C)=O)C1OC(C)=O (stereo not drawn) [Structure 102d, Tri-NAG-bis-Glu-NH-PEG8 Phosphoramidite]
  solubility relative to Structure 103d: greater solubility

## CC(=O)NC1C(OCCOCCNC(=O)CCC(NC(=O)CCC(NC(=O)CCOCCOCCOCCOCCOP(OCCC#N)C(C(C)C)C(C)C)C(=O)NCCOCCOC2OC(COC(C)=O)C(OC(C)=O)C(OC(C)=O)C2NC(C)=O)C(=O)NCCOCCOC2OC(COC(C)=O)C(OC(C)=O)C(OC(C)=O)C2NC(C)=O)OC(COC(C)=O)C(OC(C)=O)C1OC(C)=O (stereo not drawn) [Structure 103d, Tri-NAG-bis-Glu-NH-PEG4 phosphoramidite]
Standard concentrations and solvent conditions typical for oligonucleotide synthesis
  dissolution under standard conditions: difficult to dissolve

## CC(=O)NC1C(OCCOCCNC(=O)CCC(NC(=O)CCC(NC(=O)CCOCCOCCOCCOCCOCCOCCOP(OCCC#N)N(C(C)C)C(C)C)C(=O)NCCOCCOC2OC(COC(C)=O)C(OC(C)=O)C(OC(C)=O)C2NC(C)=O)C(=O)NCCOCCOC2OC(COC(C)=O)C(OC(C)=O)C(OC(C)=O)C2NC(C)=O)OC(COC(C)=O)C(OC(C)=O)C1OC(C)=O (stereo not drawn) [Structure 101d, Tri-NAG-bis-Glu-NH-PEG6 phosphoramidite]
  solubility relative to Structure 103d: greater solubility
